# Experimental data: article PMC6995525, “Structure of the PUB Domain from Ubiquitin Regulatory X Domain Protein 1 (UBXD1) and Its Interaction with the p97 AAA+ ATPase” (Biomolecules, 2019)
# Assays:
# UBXD1-PUB = molecular target: T1, UBXD1-PUB (Homo sapiens, UniProt Q9BZV1); experiment: 15N-HSQC NMR titration of 15N-labeled UBXD1-PUB with p97 peptides; assay type: binding; conditions: 50 mM NaKPi pH 6.5, 25 °C; for binding in 15N-HSQC NMR titration: phosphorylated p97-C13-pY805, 270 µM protein, up to 1.25 mM peptide, 1.2 mM or 1.1 mM (Figure S1)
# T1 construct: N-terminal hexahistidine-tagged UBXD1-PUB (150–264) was cloned into a pET28a expression vector; hexahistidine (His6) (N); made in house
# T1 sequence (Q9BZV1 150-264): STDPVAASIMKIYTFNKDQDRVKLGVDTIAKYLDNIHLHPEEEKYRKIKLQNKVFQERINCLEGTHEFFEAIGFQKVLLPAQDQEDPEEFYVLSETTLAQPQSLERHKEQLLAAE
# Method: The NMR samples contained 200–800 µM of ^15N,^13C- or ^15N-labeled protein in 50 mM NaKPi pH 6.5, 90%/10% (v/v) H2O/D2O. ^13C(aliphatic)-COSY and TOCSY experiments were measured in the same buffer with 100% D2O. All spectra were recorded at 25 °C on a 700 MHz Bruker Ultrashield NMR spectrometer equipped with a 5 mm TCI (^1H/^13C/^15N) triple resonance cryoprobe head. Spectra were processed with Topspin 3.5 (Bruker) and analyzed with CARA [42].
# To 362 μM ^15N-labeled UBXD1-PUB, the p97-C10 or p97-C13 peptides were added stepwise to a final concentration of 1.1 mM. For the titration of the phosphorylated p97-C13-pY^805 peptide to the PUB domain, the protein concentration was 270 µM, and the peptide was titrated to a final concentration of 1.2 mM. After each addition, the ^1H,^15N-HSQC spectrum was recorded.
# The chemical shift perturbation Δδtotal was calculated from the ^1H- and ^15N-shifts according to Equation (1) using the spectra with no peptide and the highest concentration of peptide, where ΔδN and ΔδH represent the chemical shift perturbation value of the amide nitrogen and proton, respectively:(1) Δδtotal=(ΔδH)^2+(0.154⋅ΔδN)^2.
# UBXD1 PUB domain = molecular target: T2, UBXD1 PUB domain (Homo sapiens, UniProt Q9BZV1); experiment: p97-PIM peptide binding to UBXD1 PUB domain (summary); conditions: isolated p97-PIM peptide
# T2 construct: N-terminal hexahistidine-tagged UBXD1-PUB (150–264) was cloned into a pET28a expression vector; hexahistidine (His6) (N); made in house
# T2 sequence (Q9BZV1 150-264): T1 sequence (Q9BZV1 150-264)
# Method: Fluorescence anisotropy measurements (excitation: 495 nm; emission 518 nm) were carried out on a JASCO FP-8300 fluorescence spectrometer in 50 mM NaKPi, pH 6.5 at 25 °C, titrating PUB constructs to 5,6-FAM labeled p97-C10 peptide (100 nM). All titrations were performed in triplicate. Binding curves of the averaged data were fitted with GraphPad Prism 5.0 (GraphPad) using the quadratic binding equation for a one-site specific binding model:(3) r=r0+rmax⋅(F+x+KD)−(F+x+KD)^2−4⋅x⋅F/2⋅F, with r = anisotropy, r0 = anisotropy without protein, rmax = maximum anisotropy, F = fluorescent probe (labeled peptide or protein) concentration, x = titrant protein concentration, and KD = dissociation constant.
# ITC measurements were performed in triplicate with a MicroCal iTC2000 (Malvern Pananalytical). UBXD1-PUB (100 µM) was titrated with 1 mM of p97-C10 peptide in 50 mM NaKPi buffer (pH 6.5) at 25 °C in 40 steps with a volume of 0.5 µL for the first 9 steps and 1.0 µL for the remaining ones.
# PNGase PUB domain = conditions: ref [25],[27],[34]; cited from earlier work
# Source text: (§1) UBXD1, PNGase, and HOIP PUB domains bind the p97-PIM peptide with KDs in the low µM range and a 1:1 stoichiometry (Table 2, Figure 4, Figure 5 and Figure S2, and [25, 27, 34]). The KD of HOIP for the OTULIN- and SPATA2-PIMs, however, is 50 times lower and lies in the nM range, which maybe reflects that these complexes either operate at lower concentrations in the cell or a have a lesser need to exchange their binding partners. p97, on the other hand, might need to swap cofactors more readily either within one pathway or to switch between different pathways.
# HOIP PUB domain = conditions: ref [25],[27],[34]; cited from earlier work
# Source text: as §1
substance,measurement,setting,value
SVYTEDNDDDLYG [p97-C13],chemical shift perturbations (CSPs) Δδtotal,"UBXD1-PUB; 362 μM 15N-UBXD1-PUB, peptide to 1.1 mM, resonances between second and fourth α-helix",> 0.2 ppm
SVYTEDNDDDLpYG [phosphorylated p97-C13],binding in 15N-HSQC NMR titration,UBXD1-PUB,no
same,binding in 15N-HSQC NMR titration,UBXD1-PUB; listed as p97-C13 peptide carrying a phosphorylated pY805,did not show any binding
p97-PIM peptide: PUB interacting motif (PIM) in the p97 C-terminus (TEDNDDDLYG),KD of PUB domain for p97-PIM peptide,UBXD1 PUB domain,low µM range
same,KD of PUB domain for p97-PIM peptide,PNGase PUB domain,low µM range
same,KD of PUB domain for p97-PIM peptide,HOIP PUB domain,low µM range
